Assay results reported in ChEMBL document CHEMBL4610061, “Identification of novel GPR81 agonist lead series for target biology evaluation” (Bioorg Med Chem Lett, 2020).
In brackets after ≈: the same amount, converted by molar mass. Activity calls are given as the source filed them. The rule behind the calls is not given here.

Experiments:
[1] = target: T1, Hydroxycarboxylic acid receptor 1 (Homo sapiens, UniProt Q9BXC0); experiment: Agonist activity at human GPR81 overexpressed in CHO cells assessed as inhibition of forskolin-stimulated cAMP production; type: functional, cell-based
T1 sequence (Q9BXC0 whole entry): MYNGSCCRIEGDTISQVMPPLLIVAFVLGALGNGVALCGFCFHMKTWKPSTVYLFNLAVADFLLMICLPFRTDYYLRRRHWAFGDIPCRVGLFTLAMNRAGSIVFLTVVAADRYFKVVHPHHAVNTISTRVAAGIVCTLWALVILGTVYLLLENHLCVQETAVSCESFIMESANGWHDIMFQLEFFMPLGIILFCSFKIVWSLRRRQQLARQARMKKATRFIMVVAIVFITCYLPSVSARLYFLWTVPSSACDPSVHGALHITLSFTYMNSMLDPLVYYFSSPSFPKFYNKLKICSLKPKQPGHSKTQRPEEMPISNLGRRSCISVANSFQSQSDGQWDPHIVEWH

[2] = Distribution coefficient, logD of compound at pH 7.4; type: physicochemical; conditions: octanol/water
[3] = target: T1, Hydroxycarboxylic acid receptor 1; experiment: Agonist activity at human GPR81 overexpressed in CHO cells assessed as inhibition of forskolin-stimulated cAMP production at 10 uM relative to control; type: functional, cell-based
[4] = Solubility of compound; type: physicochemical
[5] = target: Hydroxycarboxylic acid receptor 2 (Homo sapiens, UniProt Q8TDS4); experiment: Agonist activity at human GPR109A receptor
Sequence of Hydroxycarboxylic acid receptor 2 (Q8TDS4 whole entry): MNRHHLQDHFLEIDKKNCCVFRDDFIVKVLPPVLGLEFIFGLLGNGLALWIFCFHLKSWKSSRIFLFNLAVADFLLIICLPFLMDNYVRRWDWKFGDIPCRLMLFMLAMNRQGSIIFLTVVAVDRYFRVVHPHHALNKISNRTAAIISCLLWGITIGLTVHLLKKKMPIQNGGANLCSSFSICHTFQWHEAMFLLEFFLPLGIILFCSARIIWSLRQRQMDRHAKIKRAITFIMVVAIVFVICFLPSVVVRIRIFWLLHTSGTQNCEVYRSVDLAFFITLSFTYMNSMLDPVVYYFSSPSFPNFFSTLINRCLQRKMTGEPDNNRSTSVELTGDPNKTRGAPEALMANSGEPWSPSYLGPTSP

[6] = target: Growth hormone secretagogue receptor type 1 (Homo sapiens, UniProt Q92847); experiment: Displacement of [125I]-ghrelin from human GHS-R1a stably expressed in HEK cell membrane measured after 60 mins by gamma counter method; type: cell membranes
Sequence of Growth hormone secretagogue receptor type 1 (Q92847 whole entry): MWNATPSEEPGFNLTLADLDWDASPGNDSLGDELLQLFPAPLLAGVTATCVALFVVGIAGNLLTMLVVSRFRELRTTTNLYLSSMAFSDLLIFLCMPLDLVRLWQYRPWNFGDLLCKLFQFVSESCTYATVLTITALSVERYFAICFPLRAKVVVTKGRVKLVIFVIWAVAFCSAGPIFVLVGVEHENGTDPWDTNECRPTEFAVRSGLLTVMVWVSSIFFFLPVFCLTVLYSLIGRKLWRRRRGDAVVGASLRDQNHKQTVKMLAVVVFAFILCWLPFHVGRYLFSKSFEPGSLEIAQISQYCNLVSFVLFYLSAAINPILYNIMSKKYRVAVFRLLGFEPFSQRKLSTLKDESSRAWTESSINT

Homo sapiens = organism: Homo sapiens; experiment: Selectivity index, ratio of IC50 for displacement of [125I]-ghrelin from human GHS-R1a stably expressed in HEK cell membrane measured after 60 mins by gamma counter method to EC50 for agonist activity at human GPR81 overexpressed in CHO cells assessed as inhibition of forskolin-stimulated cAMP production; type: cell membranes
[7] = target: T2, Protein Gpr81 (Rattus norvegicus) (UniProt G3V906); experiment: Agonist activity at rat GPR81 overexpressed in HEK293 cells by [35S]GTPgammaS binding assay; type: cell-based
T2 sequence (whole entry): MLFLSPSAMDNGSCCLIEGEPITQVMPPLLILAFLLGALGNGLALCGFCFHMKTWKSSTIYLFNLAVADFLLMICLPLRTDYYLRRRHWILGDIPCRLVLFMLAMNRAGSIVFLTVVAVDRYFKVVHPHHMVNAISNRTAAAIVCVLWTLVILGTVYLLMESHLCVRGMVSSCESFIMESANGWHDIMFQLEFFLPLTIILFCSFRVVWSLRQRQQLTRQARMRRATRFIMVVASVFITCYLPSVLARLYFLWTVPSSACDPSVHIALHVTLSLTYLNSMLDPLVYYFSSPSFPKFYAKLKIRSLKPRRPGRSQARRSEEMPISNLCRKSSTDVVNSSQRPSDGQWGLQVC

SMILES	EC50 [1] [nM]	logD [2]	Efficacy [3] [%]	solubility [4] [µM]	EC50 [5] [nM]	IC50 [6] [nM]	Ratio IC50/EC50 (Homo sapiens)	Activity [7]
CCOc1cc(Cl)c(C(=O)NC(=O)Nc2nc3c(s2)CN(C(=O)CO)CC3)cc1N1CCOCC1	895	1.7						
CCOc1cc(Cl)c(C(=O)NC(=O)Nc2nc3c(s2)CCCC3)cc1N1CCOCC1	120							
CCOc1ccc(C(=O)NC(=O)Nc2nc3ccc(CN4CCN(C)CC4)cc3s2)c(Cl)c1	560	3.4						
Cc1cc(Cl)c(C(=O)NC(=O)Nc2nc3ccc(S(=O)(=O)C4CCN(C)CC4)cc3s2)cc1-n1cccn1	6100	2.5	70					
CCOc1cc(Cl)c(C(=O)NC(=O)Nc2nc3ccc(CN4CCN(C)CC4)cc3s2)cc1-n1cccn1	19	3.8						
CCOc1cc(Cl)c(C(=O)NC(=O)Nc2nc3ccc(CN4CCN(C)CC4)cc3s2)cc1-n1cccc1	22	4						
CCOc1cc(Cl)c(-c2ncc(-c3nc4ccc(S(=O)(=O)C5CCN(C)CC5)cc4s3)c(=O)[nH]2)cc1N1CCOCC1	240	1.6		61 (≈ 38.4 µg/mL)	1600	> 18000		
CCOc1cc(C(F)(F)F)c(C(=O)NC(=O)Nc2nc3ccc(CN4CCN(C)CC4)cc3s2)cc1N1CCOCC1	1400	3.3						
CCOc1cc(Cl)c(-c2ccc(-c3nc4c(s3)CN(C(=O)COC)CC4)c(=O)[nH]2)cc1N1CCOCC1	75	2.6		29 (≈ 15.8 µg/mL)	1900	> 50000		
CCOc1cc(Cl)c(C(=O)Nc2nc3ccc(S(=O)(=O)CCCN4CCN(C)CC4)cc3s2)cc1N1C[C@@H](C)O[C@@H](C)C1	54	2.7		95 (≈ 61.8 µg/mL)	660	27000	500	
CCOc1cc(Cl)c(-c2ccc(-c3nc4c(s3)CN(C(=O)CO)CC4)c(=O)[nH]2)cc1N1CCOCC1	22	2.4		7 (≈ 3.72 µg/mL)	910	1900		
CCOc1cc(Cl)c(C(=O)NC(=O)Nc2nc3ccc(CN4CCN(C)CC4)cc3s2)cc1N1CCOCC1	74	2.9		4 (≈ 2.29 µg/mL)	2160	960		Active
CCOc1cc(Cl)c(C(=O)N(C)C(=O)Nc2nc3ccc(CN4CCN(C)CC4)cc3s2)cc1N1CCOCC1	> 16000	2.5		492 (≈ 289 µg/mL)		> 50000		
CN1CCC(S(=O)(=O)c2ccc3nc(NC(=O)NC(=O)c4cc(-n5cccn5)c(F)cc4Cl)sc3c2)CC1	3600	2.4	70					
CCOc1cc(Cl)c(C(=O)NC(=O)Nc2nc3ccccc3s2)cc1N1CCOCC1	299	4						
CCOc1cc(Cl)c(C(=O)Nc2nc3ccccc3s2)cc1N1CCOCC1	1900	4.3		0.09 (≈ 0.0376 µg/mL)	12000	> 50000	> 80	
CCOc1cc(Cl)c(C(=O)Nc2nc3ccc(S(=O)(=O)CCCN4CCN(C)CC4)cc3s2)cc1N1CCOCC1	600	2		323 (≈ 201 µg/mL)	> 6300	> 50000	> 80	
CCOc1cc(Cl)c(C(=O)NC(=O)Nc2nc3ccc(S(=O)(=O)C4CCN(C)CC4)cc3s2)cc1-n1cccn1	23	3		0.2 (≈ 0.121 µg/mL)	123	8		Active
CCOc1cc(Cl)c(-c2ccc(-c3nc4ccccc4s3)c(=O)[nH]2)cc1N1CCOCC1	21	> 3.8		< 0.7	610	1300		
CCOc1cc(Cl)c(NC(=O)Nc2nc3ccc(CN4CCN(C)CC4)cc3s2)cc1N1CCOCC1	> 33000			20 (≈ 10.9 µg/mL)		> 50000		

SMILES	EC50 [1] [nM]	logD [2]	Efficacy [3] [%]	solubility [4] [µM]	EC50 [5] [nM]	IC50 [6] [nM]	Ratio IC50/EC50 (Homo sapiens)	Activity [7]
CCOc1cc(C)c(C(=O)NC(=O)Nc2nc3ccc(CN4CCN(C)CC4)cc3s2)cc1N1CCOCC1	> 3700	2.9						
CCOc1cc(Cl)c(C(=O)NC(=O)Nc2ncc(-c3ccccc3)s2)cc1N1CCOCC1	103	4.2						
CCOc1cc(Cl)c(-c2ccc(-c3nc4ccc(S(=O)(=O)C5CCN(C)CC5)cc4s3)c(=O)[nH]2)cc1N1CCOCC1	5	3.4		< 0.5	37	460		
CCOc1cc(Cl)c(C(=O)Nc2nc3ccc(CN4CCN(C)CC4)cc3s2)cc1N1CCOCC1	410	2.8		1.5 (≈ 0.795 µg/mL)	> 11000	> 50000	> 80	
CCOc1cc(Cl)c(C(=O)Nc2nc3ccc(S(=O)(=O)CCCN4CCN(C)CC4)cc3s2)cc1N1C[C@H](C)O[C@@H](C)C1	270 to 350	3		155 to 231 (≈ 101 to 150 µg/mL)	1400 to 3200	10000 to 14000	> 80	
CCOc1ccc(C(=O)NC(=O)Nc2nc3ccc(CN4CCN(C)CC4)cc3s2)cc1N1CCOCC1	740	3	47					
CCOc1cc(Cl)c(C(=O)Nc2nc3ccc(S(=O)(=O)CCCN4CCN(C)CC4)cc3s2)cc1N1CCO[C@H](C)C1	160	2.4		470 (≈ 299 µg/mL)	1400	21000	> 80	
CCOc1cc(Cl)c(C(=O)NC(=O)Nc2nc3ccc(CN4CCN(C)CC4)cc3s2)cc1N1CCCC1	13	4						
CCOc1cc(Cl)c(C(=O)NC(=O)Nc2nc3c(s2)CN(C(C)=O)CC3)cc1N1CCOCC1	719	2.3						
CCOc1cc(Cl)c(C(=O)Nc2nc3ccc(OC4CCN(C)CC4)cc3s2)cc1N1CCOCC1	110	2.9		5 (≈ 2.66 µg/mL)	1600	> 30000	> 80	
CCOc1cc(Cl)c(C(=O)Nc2nc3ccc(S(=O)(=O)C4CCN(C)CC4)cc3s2)cc1N1CCOCC1	740	2.5		1 (≈ 0.579 µg/mL)	> 9000	> 50000	> 80	
CCOc1cc(Cl)c(-c2ncc(-c3nc4ccccc4s3)c(=O)[nH]2)cc1N1CCOCC1	490	3.9		< 0.31	> 22000	5200		
CCOc1cc(Cl)c(C(=O)NC(=O)Nc2nc3ccc(S(=O)(=O)C4CCN(C)CC4)cc3s2)cc1N1CCOCC1	166	2.2						
CCOc1cc(Cl)c(C(=O)NC(=O)Nc2nc3ccc(CN4CCN(C)CC4)cc3s2)cc1N1CCO[C@H](C)C1	32	3.3						
CN1CCC(S(=O)(=O)c2ccc3nc(NC(=O)NC(=O)c4cc(-n5cccn5)ccc4Cl)sc3c2)CC1	7000	2.3	74					
CCOc1cc(Cl)c(C(=O)NC(=O)Nc2cc3ccccc3s2)cc1N1CCOCC1	260	4.4						
CCOc1cc(Cl)c(C(=O)NC(=O)Nc2nc3ccc(CN4CCN(C)CC4)cc3s2)cc1-c1ccn[nH]1	360	3.9						
CCOc1cc(Cl)c(CNC(=O)Nc2nc3ccc(CN4CCN(C)CC4)cc3s2)cc1N1CCOCC1	> 33000	3.2		188 (≈ 105 µg/mL)		> 4970		
CCOc1cc(Cl)c(C(=O)NC(=O)Nc2ncc(C)s2)cc1N1CCOCC1	769	3.2						
